{Psoralen} = psoralen conjugate attached via phosphate
Key:
HSV-1 = assay: Inhibition of HSV-1 viral replication in cell culture; format: cell-based, herpes simplex virus type 1
[1] = tested on: E1b (SP1 binding region of adenovirus E1b); assay: Inhibition of transcription of E1b; conditions: as sense oligonucleotide, simulates the SP1 binding region

## "psoralen"-pGpGpTpGpTpTpTpGpGpGpGpGpTpTpGpG(5'5'S)GpTpTpGpGpGpGpT2pTpGpTpGpTpGp-"psoralen") (chain 1 NGTTGGGGGTTTGTGN; chain 2 NTTGGGGTTGTGTN; 3' {Psoralen}, sugars by position, backbone and the base at N not given here; two pieces joined 5'-5' through S linker) [IA-4, oligonucleotide modified with psoralen at both 3'-ends]
HSV-1; target: origin of replication (oriL) of the HSV-1 genome
  inhibition of HSV-1 replication by triplex formation: inhibits replication of the latter by triplex formation

## d(GpGpGpCpGpGpGpGpCpTpTpApApApGpG(3'5'S)CpCpTpTpTpApApGpCpCpCpCpGpCpCpCp-O- -(CH2 CH2 O)8 (CH2)13 CH3) (DNA GGGCGGGGCTTAAAGNNCTTTAAGCCCCGCCN; chemistry not fully specified) [IB-2, 3'-modified oligonucleotide analog with a 3'5'-spacer]
[1]
  inhibition of transcription of E1b: inhibits the transcription of E1b

## d(p-Nitrophenylethyl-2-oxy-pC(5'5'p)GpTpCpCpApTpGpTpCpGpGpCpApApApCpApGpCpTp-O-i-C3 H7) (DNA NNTCCATGTCGGCAAACAGCN; chemistry not fully specified) [IA-2]
HSV-1; cell culture, sequence I directed against mRNA of transactivator protein Vmw65, sequences II and III against splice-acceptor region of IE4/5 precursor mRNA
  inhibition of HSV-1 replication: inhibit HSV-1 replication
